From patent US20130053430A1, “MODULATION OF CETP EXPRESSION” (Isis Pharmaceuticals, Inc., priority 2010, published 2013)
Strand notation (5' to 3'): a small letter for the sugar, then the base; units joined by * are phosphorothioate-linked, units joined directly phosphodiester-linked; [ ] holds rarer units or linkages, { } end groups; capitals alone tell only the bases. e = 2'-O-(2-methoxyethyl) (MOE); [5mC] = 5-methylcytosine; d = 2'-deoxy (DNA)

How the values were obtained:
human CETP mRNA [1] = assay: Antisense inhibition of human CETP mRNA in primary hepatocytes from huCETP transgenic mice (Example 4); type: cell-based, mouse; conditions: cytofectin, ~24 hours
Protocol: Transgenic mice expressing human CETP, controlled by its natural flanking region, increase expression of this gene in response to hypercholesterolemia (Jiang, X. C. et al., J. Clin. Invest. 1992. 90: 1290-1295). These mice were utilized for the following studies. Antisense oligonucleotides targeted to a CETP nucleic acid and described in Example 1 were tested for their effect on CETP mRNA transcript in vitro. Cultured primary hepatocytes from huCETP transgenic mice, at a density of 17,500 cells per well in a 96-well plate, were transfected using cytofectin reagent with 100 nM or 200 nM antisense oligonucleotide. After approximately 24 hours, RNA was isolated from the cells and CETP mRNA levels were measured by quantitative real-time PCR. CETP mRNA transcript levels were adjusted according to total RNA content, as measured by the house-keeping gene, GAPDH mRNA levels. Results are presented in Table 6 as percent inhibition of CETP, relative to untreated control cells.

human CETP mRNA [2] = assay: Antisense inhibition of human CETP mRNA in SW872 liposarcoma cells (Example 1); type: cell-based; conditions: 150 nM antisense oligonucleotide, lipofectin, ~24 hours, relative to untreated control cells
Protocol: Antisense oligonucleotides targeted to a CETP nucleic acid were tested for their effect on CETP mRNA transcript in vitro. Cultured SW872 liposarcoma cells at a density of 50,000 cells per well in a 24-well plate were transfected using lipofectin reagent with 150 nM antisense oligonucleotide. After approximately 24 hours, RNA was isolated from the cells and CETP mRNA levels were measured by quantitative real-time PCR. A human primer probe set (forward sequence […], designated herein as SEQ ID NO: 38; reverse sequence GGCTCACGCCTTTGCTGTT, designated herein as SEQ ID NO: 39; probe sequence […], designated herein as SEQ ID NO: 40) was used to quantitate CETP mRNA. CETP mRNA transcript levels were adjusted according to total RNA content, as measured by the house-keeping gene, GAPDH mRNA levels. GAPDH was measured using a primer probe set with the sequence as set forth in SEQ ID NOs: 10, 11, 13. Results are presented as percent inhibition of CETP, relative to untreated control cells.
The antisense oligonucleotides in Table 3 are 5-10-5 gapmers, where the gap segment comprises ten 2′-deoxynucleosides and each wing segment comprises five 2′-MOE nucleosides. Each nucleotide in the 5′ wing segment and each nucleotide in the 3′ wing segment has a 2′-MOE modification. The internucleoside linkages throughout each gapmer are phosphorothioate (P═S) linkages. All cytosine residues throughout each gapmer are 5-methylcytosines. ‘Target start site’ indicates the 5′-most nucleotide to which the antisense oligonucleotide is targeted. ‘Target stop site’ indicates the 3′-most nucleotide to which the antisense oligonucleotide is targeted. All the antisense oligonucleotides listed in Table 3 target human CETP mRNA, designated herein as SEQ ID NO: 1 (GENBANK Accession No. M30185.1).

Substance | Percent inhibition of human CETP mRNA (human CETP mRNA [1]; 100 nM) [%] | Percent inhibition of human CETP mRNA (human CETP mRNA [1]; 200 nM) [%] | % inhibition (human CETP mRNA [2]) [%]
ISIS 349466: 5-10-5 MOE gapmer CCACAGACACGTTCTGAATG (e[5mC]*e[5mC]*eA*e[5mC]*eA*dG*dA*d[5mC]*dA*d[5mC]*dG*dT*dT*d[5mC]*dT*eG*eA*eA*eT*eG) | 57 | 81 | 15
ISIS 349467: 5-10-5 MOE gapmer GTGGTGTAGCCATACTTCAG (eG*eT*eG*eG*eT*dG*dT*dA*dG*d[5mC]*d[5mC]*dA*dT*dA*d[5mC]*eT*eT*e[5mC]*eA*eG) | 57 | 51 | 35
ISIS 349468: 5-10-5 MOE gapmer TCAATACCCAGCCACCAGGC (eT*e[5mC]*eA*eA*eT*dA*d[5mC]*d[5mC]*d[5mC]*dA*dG*d[5mC]*d[5mC]*dA*d[5mC]*e[5mC]*eA*eG*eG*e[5mC]) | 53 | 50 | 33
ISIS 349469: 5-10-5 MOE gapmer TCTCGAAGTCAATGGACTGA (eT*e[5mC]*eT*e[5mC]*eG*dA*dA*dG*dT*d[5mC]*dA*dA*dT*dG*dG*eA*e[5mC]*eT*eG*eA) | 40 | 66 | 70
ISIS 349470: 5-10-5 MOE gapmer GAGGTCAATGGCAGAGTCGA (antisense eG*eA*eG*eG*eT*d[5mC]*dA*dA*dT*dG*dG*d[5mC]*dA*dG*dA*eG*eT*e[5mC]*eG*eA) | 64 | 49 | 59
ISIS 349471: 5-10-5 MOE gapmer GTCAGCTGTGTGTTGATCTG (eG*eT*e[5mC]*eA*eG*d[5mC]*dT*dG*dT*dG*dT*dG*dT*dT*dG*eA*eT*e[5mC]*eT*eG) | 70 | 66 | 32
ISIS 349472: 5-10-5 MOE gapmer GCACTCTACCAGAGTCACAG (eG*e[5mC]*eA*e[5mC]*eT*d[5mC]*dT*dA*d[5mC]*d[5mC]*dA*dG*dA*dG*dT*e[5mC]*eA*e[5mC]*eA*eG) | 25 | 45 | 39
ISIS 349473: 5-10-5 MOE gapmer AGCAGCTTATGGAAAGACAG (eA*eG*e[5mC]*eA*eG*d[5mC]*dT*dT*dA*dT*dG*dG*dA*dA*dA*eG*eA*e[5mC]*eA*eG) | 55 | 61 | 72
ISIS 349474: 5-10-5 MOE gapmer CGCTCCCCTTGGAGATGCAG (e[5mC]*eG*e[5mC]*eT*e[5mC]*d[5mC]*d[5mC]*d[5mC]*dT*dT*dG*dG*dA*dG*dA*eT*eG*e[5mC]*eA*eG) | 64 | 48 | 76
ISIS 349475: 5-10-5 MOE gapmer GCTTGATCCACCCAGGCTCT (eG*e[5mC]*eT*eT*eG*dA*dT*d[5mC]*d[5mC]*dA*d[5mC]*d[5mC]*d[5mC]*dA*dG*eG*e[5mC]*eT*e[5mC]*eT) | 0 | 0 | 5
ISIS 349476: 5-10-5 MOE gapmer CCTTCAGGACCAGCTTCAGG (e[5mC]*e[5mC]*eT*eT*e[5mC]*dA*dG*dG*dA*d[5mC]*d[5mC]*dA*dG*d[5mC]*dT*eT*e[5mC]*eA*eG*eG) | 49 | 60 | 59
ISIS 349477: 5-10-5 MOE gapmer GATCTCTTTGCAGATCTGTC (eG*eA*eT*e[5mC]*eT*d[5mC]*dT*dT*dT*dG*d[5mC]*dA*dG*dA*dT*e[5mC]*eT*eG*eT*e[5mC]) | 44 | 47 | 41
ISIS 349478: 5-10-5 MOE gapmer ATGATGTTAGAGATGACGTT (eA*eT*eG*eA*eT*dG*dT*dT*dA*dG*dA*dG*dA*dT*dG*eA*e[5mC]*eG*eT*eT) | 6 | 33 | 48
ISIS 349479: 5-10-5 MOE gapmer CTGGCAGCCCTTGTCTGGAC (e[5mC]*eT*eG*eG*e[5mC]*dA*dG*d[5mC]*d[5mC]*d[5mC]*dT*dT*dG*dT*d[5mC]*eT*eG*eG*eA*e[5mC]) | 80 | 66 | 67
ISIS 349480: 5-10-5 MOE gapmer TGTCTCCATCTGAAAGGATG (eT*eG*eT*e[5mC]*eT*d[5mC]*d[5mC]*dA*dT*d[5mC]*dT*dG*dA*dA*dA*eG*eG*eA*eT*eG) | 46 | 40 | 74
ISIS 349481: 5-10-5 MOE gapmer AGGTAGGAGGCTGTGATGAC (eA*eG*eG*eT*eA*dG*dG*dA*dG*dG*d[5mC]*dT*dG*dT*dG*eA*eT*eG*eA*e[5mC]) | 79 | 65 | 66
ISIS 349482: 5-10-5 MOE gapmer TGAAATGACCCTTGTGATGG (eT*eG*eA*eA*eA*dT*dG*dA*d[5mC]*d[5mC]*d[5mC]*dT*dT*dG*dT*eG*eA*eT*eG*eG) | 11 | 65 | 51
ISIS 349484: 5-10-5 MOE gapmer ACCAGAAGTACAGCATGCGG (eA*e[5mC]*e[5mC]*eA*eG*dA*dA*dG*dT*dA*d[5mC]*dA*dG*d[5mC]*dA*eT*eG*e[5mC]*eG*eG) | 34 | 52 | 38
ISIS 349486: 5-10-5 MOE gapmer GAAAGCTACCTTGGCCAGCG (eG*eA*eA*eA*eG*d[5mC]*dT*dA*d[5mC]*d[5mC]*dT*dT*dG*dG*d[5mC]*e[5mC]*eA*eG*e[5mC]*eG) | 72 | 53 | 55
ISIS 349487: 5-10-5 MOE gapmer CCCATCAGGCTGAGCATGAG (e[5mC]*e[5mC]*e[5mC]*eA*eT*d[5mC]*dA*dG*dG*d[5mC]*dT*dG*dA*dG*d[5mC]*eA*eT*eG*eA*eG) | 84 | 68 | 73
ISIS 349488: 5-10-5 MOE gapmer GCACTGCCTTGAACTCGTCT (eG*e[5mC]*eA*e[5mC]*eT*dG*d[5mC]*d[5mC]*dT*dT*dG*dA*dA*d[5mC]*dT*e[5mC]*eG*eT*e[5mC]*eT) | 77 | 87 | 47
ISIS 349489: 5-10-5 MOE gapmer GTTGAAGCCCCAGGTCTCCA (eG*eT*eT*eG*eA*dA*dG*d[5mC]*d[5mC]*d[5mC]*d[5mC]*dA*dG*dG*dT*e[5mC]*eT*e[5mC]*e[5mC]*eA) | 47 | 67 | 48
ISIS 349491: 5-10-5 MOE gapmer AGCCGCCGACAACCTCTTGG (eA*eG*e[5mC]*e[5mC]*eG*d[5mC]*d[5mC]*dG*dA*d[5mC]*dA*dA*d[5mC]*d[5mC]*dT*e[5mC]*eT*eT*eG*eG) | 60 | 74 | 45
ISIS 349492: 5-10-5 MOE gapmer GGCATCTTGAGGCAGTGGAC (antisense eG*eG*e[5mC]*eA*eT*d[5mC]*dT*dT*dG*dA*dG*dG*d[5mC]*dA*dG*eT*eG*eG*eA*e[5mC]) | 59 | 58 | 39
ISIS 349493: 5-10-5 MOE gapmer TGTTTTGGCAGGAGATCTTG (eT*eG*eT*eT*eT*dT*dG*dG*d[5mC]*dA*dG*dG*dA*dG*dA*eT*e[5mC]*eT*eT*eG) | 51 | 62 | 67
ISIS 349494: 5-10-5 MOE gapmer AGAATTGACCACGACTCCCT (eA*eG*eA*eA*eT*dT*dG*dA*d[5mC]*d[5mC]*dA*d[5mC]*dG*dA*d[5mC]*eT*e[5mC]*e[5mC]*e[5mC]*eT) | 85 | 57 | 41
